Measured values taken from EP2161259A1, “4-Haloalkyl substituted Diaminopyrimidine” (Bayer CropScience AG, priority 2008, dated 2010).

How the values were obtained:
Alternaria solani = test: Alternaria test (tomato) / protective; type: in vivo
Puccinia recondita = test: Puccinia test (wheat) / protective; type: in vivo
Fumonisin FB1 = test: Production of fumonisin FB1 by Fusarium proliferatum (microtiter plate, HPLC-MS/MS); type: cell-based; conditions: 144 h, read-out: pI50 FB1
Fusarium proliferatum = test: microbe, parasite or virus in culture; type: cell-based; conditions: 144 h, read-out: pI50 Wachstum
[1] = test system: Fusarium nivale (var.majus); type: in vivo; conditions: 120 h, 1000 ppm
Text: […]-Dimethylacetamid Emulgator: 1 Gewichtsteil Alkylarylpolyglykolether Zur […] und Emulgator und verdünnt das Konzentrat mit Wasser auf die gewünschte Konzentration. Zur Prüfung auf protektive Wirksamkeit besprüht man junge Pflanzen mit der Wirkstoffzubereitung in der angegebenen Aufwandmenge. Nach Antrocknen des Spritzbelages werden die Pflanzen mit Sporen mit einer Sporensuspension von Fusarium nivale (var.majus) besprüht. Die Pflanzen werden in einer Gewächshauskammer unter […] Inkubationshaube bei 10°C und 100 % relativer Luftfeuchtigkeit gestellt. 5 Tage nach der Inokulation erfolgt die Auswertung. Dabei bedeutet 0 % ein Wirkungsgrad, der demjenigen der Kontrolle entspricht, während ein Wirkungsgrad von 100 % bedeutet, dass kein Befall beobachtet wird.

Botrytis cinerea = type: in vivo; conditions: 48 h, 250 ppm
Text: Lösungsmittel: 24,5 Gewichtsteile Aceton 24,5 Gewichtsteile Dimethylacetamid Emulgator : 1 Gewichtsteil Alkyl-Aryl-Polyglykolether Zur […] und Emulgator und verdünnt das Konzentrat mit Wasser auf die gewünschte Konzentration. Zur Prüfung auf protektive Wirksamkeit werden junge Pflanzen mit der Wirkstoffzubereitung in der angegebenen Aufwandmenge besprüht. Nach Antrocknen des Spritzbelages werden auf jedes Blatt 2 […] Botrytis cinerea […]. Die inokulierten Pflanzen werden in einer abgedunkelten Kammer bei ca. 20°C und 100% relativer Luftfeuchtigkeit aufgestellt. 2 Tage nach der Inokulation wird die Größe der Befallsflecken auf den Blä[…]. Dabei bedeutet 0% ein Wirkungsgrad, der demjenigen der Kontrolle entspricht, während ein Wirkungsgrad von 100% bedeutet, daß kein Befall beobachtet wird.

Pyricularia oryzae = type: in vivo; conditions: 250ppm active compound; rice, protective; evaluation 7 days after inoculation
Cochliobolus miyabeanus = test: Cochliobolus test (rice) / protective; type: in vivo; conditions: 250ppm active compound, evaluation 4 days after inoculation
Venturia inaequalis = type: in vivo; conditions: 240 h, 100 ppm
Text: Lösungsmittel: 24,5 Gewichtsteile Aceton 24,5 Gewichtsteile Dimethylacetamid Emulgator : 1 Gewichtsteil Alkyl-Aryl-Polyglykolether Zur […] und Emulgator und verdünnt das Konzentrat mit Wasser auf die gewünschte Konzentration. Zur Prüfung auf protektive Wirksamkeit werden junge Pflanzen mit der Wirkstoffzubereitung in der angegebenen Aufwandmenge besprüht. Nach Antrocknen des Spritzbelages werden die Pflanzen mit einer wäßrigen Konidiensuspension des […] Venturia inaequalis inokuliert und verbleiben dann 1 Tag bei ca. 20°C und 100% relativer Luftfeuchtigkeit in einer Inkubations-kabine. Die Pflanzen werden dann im Gewächshaus bei ca. 21°C und einer relativen Luftfeuchtigkeit von ca. 90% aufgestellt. 10 Tage nach der Inokulation erfolgt die Auswertung. Dabei bedeutet 0% ein Wirkungsgrad, der demjenigen der Kontrolle entspricht, während ein Wirkungsgrad von 100% bedeutet, daß kein Befall beobachtet wird.

Gibberella zeae = conditions: in vivo
[2] = 500ppm active compound, wheat, protective, evaluation 7-9 days after inoculation

Row | Compound | chromatographic logP (physchem; pH 2.7) | Wirkungsgrad (Puccinia recondita; 500 ppm) | other results
1 | CC(Nc1nc(Nc2ccccc2)ncc1Cl)C(F)(F)F (stereo not shown) [Verbindung 2] | – | – | chromatographic logP (physchem; pH 2.3): 2.87
2 | CN(C)C(=O)c1ccc(Nc2ncc(Cl)c(NCC(F)(F)F)n2)cc1 [Verbindung 48] | 1.93 | – | Wirkungsgrad (Alternaria solani; 168 h, 500 ppm): ≥ 70%
3 | CC(=O)Nc1ccc(Nc2ncc(Cl)c(NCC(F)(F)F)n2)cc1 [Verbindung 13] | 1.54 | ≥ 70% | –
4 | O=S(=O)(c1cccc(Nc2ncc(Cl)c(NCC(F)(F)F)n2)c1)N1CCCCC1 [Verbindung 26] | 2.58 | ≥ 70% | –
5 | CNC(=O)c1cccc(Nc2ncc(Cl)c(NCC(F)(F)F)n2)c1 [Verbindung 23] | 1.66 | ≥ 70% | –
6 | COc1cccc(Nc2ncc(Cl)c(NCC(F)F)n2)c1 [Verbindung 39] | 1.96 | – | IC50 (Fumonisin FB1): 3.16 µM; IC50 (Fusarium proliferatum): 10 µM
7 | CC(=O)Nc1ccc(Nc2ncc(Cl)c(NCC(F)(F)F)n2)cc1Cl [Verbindung 14] | 2.04 | – | –
8 | O=Cc1cccc(Nc2ncc(Cl)c(NCC(F)(F)F)n2)c1 [Verbindung 46] | – | – | Wirkungsgrad (Alternaria solani; 500ppm active compound, tomato, protective, evaluation 7 days after inoculation): ≥ 70%; Wirkungsgrad (Puccinia recondita; [2]): ≥ 70%; chromatographic logP (physchem; pH 7.8): 2.67
9 | COc1ccc(Nc2ncc(Cl)c(NCC(F)(F)F)n2)cc1 [Verbindung 7] | 2.06 | – | –
10 | COc1cccc(Nc2ncc(Cl)c(NCC(F)(F)F)n2)c1 [Verbindung 6] | 2.55 | ≥ 70% | IC50 (Fumonisin FB1): 1.58 µM; IC50 (Fusarium proliferatum): 3.16 µM
11 | CC(C)(C)C(=O)Cc1ccc(Nc2ncc(Cl)c(NCC(F)(F)F)n2)cc1 [Verbindung 27] | 3.17 | – | Wirkungsgrad (Alternaria solani; 168 h, 500 ppm): ≥ 70%
12 | CC(=O)N(C)c1ccc(Nc2ncc(Cl)c(NCC(F)(F)F)n2)cc1 [Verbindung 16] | 1.92 | ≥ 70% | Wirkungsgrad (Alternaria solani; 168 h, 500 ppm): ≥ 70%
13 | COC(=O)Nc1ccc(Nc2ncc(Cl)c(NCC(F)(F)F)n2)cc1 [Verbindung 31] | 1.85 | – | –
14 | CSc1ccc(Nc2ncc(Cl)c(NCC(F)(F)F)n2)cc1Cl [Verbindung 12] | 3.55 | – | –
15 | C=CCNC(=O)c1ccc(Nc2ncc(Cl)c(NCC(F)F)n2)cc1 [Verbindung 41] | 1.84 | ≥ 70% | –
16 | CC(=O)c1ccc(Nc2ncc(Cl)c(NCC(F)(F)F)n2)cc1 [Verbindung 28] | 2.51 | – | –
17 | N#Cc1cccc(Nc2ncc(Cl)c(NCC(F)(F)F)n2)c1 [Verbindung 4] | 2.67 | – | Wirkungsgrad (Alternaria solani; 168 h, 500 ppm): ≥ 70%
18 | CCOC(=O)Nc1cccc(Nc2ncc(Cl)c(NCC(F)(F)F)n2)c1 [Verbindung 33] | 2.36 | – | –
19 | CC(=O)Nc1cc(Nc2ncc(Cl)c(NCC(F)(F)F)n2)ccc1C [Verbindung 38] | 1.61 | ≥ 70% | –
20 | CC(=O)c1cccc(Nc2ncc(Cl)c(NCC(F)(F)F)n2)c1 [Verbindung 29] | 2.39 | ≥ 70% | Wirkungsgrad [1]: ≥ 70%; IC50 (Fumonisin FB1): 10 µM; IC50 (Fusarium proliferatum): > 50.1 µM
21 | C=C(C)C(=O)Nc1cccc(Nc2ncc(Cl)c(NCC(F)(F)F)n2)c1 [Verbindung 20] | 2.16 | – | –
22 | CNC(=O)c1ccc(Nc2ncc(Cl)c(NCC(F)(F)F)n2)cc1 [Verbindung 22] | 1.66 | – | –
23 | CCN(C(C)=O)c1ccc(Nc2ncc(Cl)c(NCC(F)(F)F)n2)cc1 [Verbindung 15] | 2.13 | ≥ 70% | Wirkungsgrad (Alternaria solani; 168 h, 500 ppm): ≥ 70%
24 | O=C1NC(=O)C(c2ccc(Nc3ncc(Cl)c(NCC(F)(F)F)n3)cc2)N1 (stereo not shown) [Verbindung 30] | 1.47 | – | –

Row | Compound | chromatographic logP (physchem; pH 2.7) | Wirkungsgrad (Puccinia recondita; 500 ppm) | other results
25 | O=Cc1cccc(Nc2ncc(Cl)c(NCC(F)F)n2)c1 [Verbindung 47] | – | – | Wirkungsgrad (Puccinia recondita; [2]): ≥ 70%; chromatographic logP (physchem; pH 7.8): 2.49
26 | N#Cc1ccc(Nc2ncc(Cl)c(NCC(F)(F)F)n2)cc1 [Verbindung 8] | 2.77 | – | –
27 | N#CCc1cccc(Nc2ncc(Cl)c(NCC(F)F)n2)c1 [Verbindung 43] | 1.89 | ≥ 70% | Wirkungsgrad (Botrytis cinerea): ≥ 70%; Wirkungsgrad (Alternaria solani; 168 h, 500 ppm): ≥ 70%; IC50 (Fumonisin FB1): 1.26 µM; IC50 (Fusarium proliferatum): 6.31 µM; Wirkungsgrad (Pyricularia oryzae): ≥ 80%; Wirkungsgrad (Cochliobolus miyabeanus): ≥ 80%
28 | Cc1cccc(Nc2ncc(Cl)c(NCC(F)(F)F)n2)c1 [Verbindung 44] | 2.88 | – | IC50 (Fumonisin FB1): 1.26 µM; IC50 (Fusarium proliferatum): 20 µM
29 | FC(F)CNc1nc(Nc2ccccc2)ncc1Cl [Verbindung 1, 5-Chlor-N^4-(2,2-difluorethyl)-N^2-phenylpyrimidin-2,4-diamin] | – | – | Wirkungsgrad (Venturia inaequalis): ≥ 70%; Wirkungsgrad (Alternaria solani; 168 h, 500 ppm): ≥ 70%; Wirkungsgrad [1]: ≥ 70%; IC50 (Fumonisin FB1): 3.16 µM; IC50 (Fusarium proliferatum): 7.94 µM; chromatographic logP (physchem; pH 2.3): 1.89
30 | COC(=O)Nc1cccc(Nc2ncc(Cl)c(NCC(F)(F)F)n2)c1 [Verbindung 35] | 2.06 | ≥ 70% | IC50 (Fumonisin FB1): 31.6 µM; IC50 (Fusarium proliferatum): 39.8 µM
31 | CCOC(=O)Nc1ccc(Nc2ncc(Cl)c(NCC(F)(F)F)n2)cc1 [Verbindung 32] | 2.11 | – | –
32 | CC(C)(C)C(=O)Nc1cccc(Nc2ncc(Cl)c(NCC(F)(F)F)n2)c1 [Verbindung 21] | 2.51 | ≥ 70% | –
33 | CC(=O)Nc1cccc(Nc2ncc(Cl)c(NCC(F)(F)F)n2)c1 [Verbindung 19] | 1.66 | ≥ 70% | –
34 | CN(C)C(=O)c1ccc(Nc2ncc(Cl)c(NCC(F)F)n2)cc1 [Verbindung 40] | 1.55 | ≥ 70% | –
35 | CNC(=O)Oc1cccc(Nc2ncc(Cl)c(NCC(F)(F)F)n2)c1 [Verbindung 34] | – | – | IC50 (Fumonisin FB1): 10 µM; IC50 (Fusarium proliferatum): > 50.1 µM; Wirkungsgrad (Gibberella zeae): ≥ 80%
36 | CSc1cccc(Nc2ncc(Cl)c(NCC(F)(F)F)n2)c1 [Verbindung 24] | 3.04 | ≥ 70% | Wirkungsgrad [1]: ≥ 70%; IC50 (Fumonisin FB1): 31.6 µM; IC50 (Fusarium proliferatum): > 50.1 µM
37 | FC(F)(F)CNc1nc(Nc2cccc(OC(F)(F)F)c2)ncc1Cl [Verbindung 9] | 3.72 | – | –
38 | COc1cc(Nc2ncc(Cl)c(NCC(F)(F)F)n2)ccc1NC(C)=O [Verbindung 5] | 1.75 | ≥ 70% | –
39 | CN(C)S(=O)(=O)c1ccc(Nc2ncc(Cl)c(NCC(F)(F)F)n2)cc1 [Verbindung 11] | 2.64 | – | –
40 | CC1(C(=O)Nc2ccc(Nc3ncc(Cl)c(NCC(F)(F)F)n3)cc2)CC1 [Verbindung 18] | 2.16 | – | –
41 | CS(=O)(=O)c1ccc(Nc2ncc(Cl)c(NCC(F)(F)F)n2)cc1 [Verbindung 10] | 2.21 | – | –
42 | CSc1ccc(Nc2ncc(Cl)c(NCC(F)(F)F)n2)cc1 [Verbindung 25] | 2.92 | – | –
43 | FC(F)(F)CNc1nc(Nc2ccccc2)ncc1Cl [Verbindung 3, 5-Chlor-N^2-phenyl-N^4-(2,2,2-trifluorethyl)pyrimidin-2,4-diamin] | – | ≥ 70% | Wirkungsgrad (Venturia inaequalis): ≥ 70%; Wirkungsgrad [1]: ≥ 70%; IC50 (Fumonisin FB1): 2 µM; IC50 (Fusarium proliferatum): 12.6 µM; chromatographic logP (physchem; pH 2.3): 2.56; chromatographic logP (physchem; pH 7.8): 3.09
44 | O=C(Nc1ccc(Nc2ncc(Cl)c(NCC(F)(F)F)n2)cc1)C(F)(F)F [Verbindung 17] | 2.55 | – | –
45 | CC(C)(CF)C(=O)Nc1cccc(Nc2ncc(Cl)c(NCC(F)(F)F)n2)c1 [Verbindung 37] | 2.42 | ≥ 70% | –
46 | Cc1cccc(Nc2ncc(Cl)c(NCC(F)F)n2)c1 [Verbindung 45] | 2.27 | ≥ 70% | IC50 (Fumonisin FB1): 1.58 µM; IC50 (Fusarium proliferatum): 5.01 µM
47 | O=c1[nH]c(Nc2ccccc2)ncc1Br [IX-1, 2-Anilino-5-brompyrimidin-4(3H)-on] | – | – | chromatographic logP (physchem; pH 2.3): 1.62
48 | CC(CC(F)(F)F)Nc1nc(Nc2ccccc2)ncc1Br (stereo not shown) [Verbindung 42, 5-Brom-N^2-phenyl-N^4-(4,4,4-trifluorbutan-2-yl)pyrimidin-2,4-diamin] | 2.4 | – | –
